Results on 8 compounds are retold here after patent publication US9290440B2, “Bicyclic compound” (TOA EIYO LTD., priority 2012, dated 2016).

The target in test [1] is T1, human sGC α subunit and β subunit (Homo sapiens, UniProt Q02153).
T1 construct: expressed in transfected cells
T1 sequence (Q02153 1-619): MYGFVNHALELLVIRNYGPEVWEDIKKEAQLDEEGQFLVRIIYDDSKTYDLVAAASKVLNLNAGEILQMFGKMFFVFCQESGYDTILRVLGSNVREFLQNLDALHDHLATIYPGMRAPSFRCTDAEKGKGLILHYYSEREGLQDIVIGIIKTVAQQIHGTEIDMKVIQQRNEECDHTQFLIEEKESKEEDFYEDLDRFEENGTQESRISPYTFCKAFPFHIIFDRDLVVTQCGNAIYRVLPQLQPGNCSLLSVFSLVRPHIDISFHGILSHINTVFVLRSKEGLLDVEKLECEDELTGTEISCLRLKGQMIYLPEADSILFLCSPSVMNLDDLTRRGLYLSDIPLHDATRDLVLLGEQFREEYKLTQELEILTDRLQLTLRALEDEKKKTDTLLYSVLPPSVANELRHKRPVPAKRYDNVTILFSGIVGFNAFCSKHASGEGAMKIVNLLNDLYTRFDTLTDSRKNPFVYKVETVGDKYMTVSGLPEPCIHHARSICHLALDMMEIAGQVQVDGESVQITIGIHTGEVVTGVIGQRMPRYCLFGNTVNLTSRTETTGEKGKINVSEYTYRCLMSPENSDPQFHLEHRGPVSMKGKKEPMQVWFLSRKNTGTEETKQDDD
T1 sequence (Q02108 1-690 partner): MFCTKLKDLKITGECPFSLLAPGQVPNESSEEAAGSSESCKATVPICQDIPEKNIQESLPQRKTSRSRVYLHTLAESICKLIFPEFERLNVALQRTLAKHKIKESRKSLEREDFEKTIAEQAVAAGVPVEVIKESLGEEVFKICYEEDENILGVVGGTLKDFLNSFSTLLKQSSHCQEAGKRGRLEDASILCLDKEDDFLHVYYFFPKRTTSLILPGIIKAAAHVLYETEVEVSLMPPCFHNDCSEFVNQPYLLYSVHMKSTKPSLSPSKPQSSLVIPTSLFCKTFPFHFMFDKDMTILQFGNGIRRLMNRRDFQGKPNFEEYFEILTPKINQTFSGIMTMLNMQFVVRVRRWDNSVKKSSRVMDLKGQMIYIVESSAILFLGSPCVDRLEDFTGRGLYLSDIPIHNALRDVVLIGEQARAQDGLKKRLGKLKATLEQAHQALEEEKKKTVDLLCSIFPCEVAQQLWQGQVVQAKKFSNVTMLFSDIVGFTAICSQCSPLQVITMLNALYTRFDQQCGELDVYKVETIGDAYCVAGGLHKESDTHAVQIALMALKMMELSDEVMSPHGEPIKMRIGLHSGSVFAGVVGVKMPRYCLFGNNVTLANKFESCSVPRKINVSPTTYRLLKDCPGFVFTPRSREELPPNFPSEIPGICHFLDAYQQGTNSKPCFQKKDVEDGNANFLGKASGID
The test can be described thus: Heme-independent property of sGC activating function (EC50 ratio, CHO-K1 cells expressing human sGC and mouse CNGA2). In kind it is cell-based. The settings on record: EC50 in the absence of ODQ divided by EC50 in the presence of ODQ, sGC activation. On the procedure:
(§1) For the assay, Chinese hamster ovary cells (CHO-K1 cells) in which human sGC α subunit and β subunit and mouse cyclic nucleotide gated channel (CNGA2) are stably expressed were used.
(§2) CHO-K1 cells in which human sGC and mouse CNGA2 are stably expressed were cultured at 37° C. in F-12 medium containing 10% (v/v) fetal bovine serum (FBS), penicillin (100 U/mL), streptomycin (100 μg/mL), G418 (250 μg/mL), and zeocin (250 μg/mL). The cells were suspended in the culture medium and seeded onto a 96-well plate, and then cultured at 37° C. for 24 hours. After washing with assay buffer 1 (140 mmol/L sodium chloride, 5 mmol/L potassium chloride, 0.5 mmol/L magnesium chloride, 0.01 mmol/L calcium chloride, 10 mmol/L glucose, 0.4 mmol/L magnesium sulfate, 10 mmol/L 4-(2-hydroxyethyl)piperazin-1-ylethane sulfonic acid, and 125 μmol/L sulfinpyrazone, pH 7.4), an indicator solution in which FURA2-AM as a fluorescent Ca^2+ indicator is dissolved at concentration of 5 μmol/L in assay buffer 1 was added followed by culture for 60 minutes at 37° C. The indicator solution was removed. After washing with assay buffer 1, the test compound solution was added and incubated for 10 minutes at room temperature. The plate was placed in a fluorometer (Flex Station II, Molecular Devices, LLC), and then the intracellular calcium concentration was measured as fluorescence intensity ratio which is obtained from each excitation wavelength (excitation wavelength of 340 nm and 380 nm and detection wavelength of 510 nm).
(§3) The test compound solution was prepared by dissolving each of the test compounds in DMSO to a concentration of 10 mmol/L, and then adding the assay buffer 2 (140 mmol/L sodium chloride, 5 mmol/L potassium chloride, 0.5 mmol/L magnesium chloride, 1 mmol/L calcium chloride, 10 mmol/L glucose, 0.4 mmol/L magnesium sulfate, 10 mmol/L 4-(2-hydroxyethyl)piperazin-1-ylethane sulfonic acid, 125 μmol/L sulfinpyrazone, 100 μmol/L isobutylmethylxanthine, 10 μmol/L 1H-[1,2,4]-oxadiazole[4,3-a]quinoxalin-1-one (hereinbelow, ODQ), pH 7.4) for dilution to have test concentration of 10 μmol/L. For the evaluation of a case in which ODQ is not contained, the same evaluation was performed except that ODQ is excluded from assay buffer 2. As a control solution, a DMSO solution was used instead of the test compound solution.
(§4) The activity of the test compound corresponds to the increase ratio (%) of the sGC activity at the time of adding the test compound solution with respect to the sGC activity at the time of adding the control solution, and it was calculated by dividing the fluorescence intensity ratio at the time of adding the test compound by the fluorescence intensity ratio of the control solution and subtracting the sGC activity (100%) at the time of adding the control solution.
For the representative compounds, activity was measured in the same manner as Test Example 1 at each test concentration of 0.0001, 0.001, 0.003, 0.01, 0.03, 0.1, 1, and 10 μmol/L.
The degree of heme-independent property of each test compound with regard to sGC activating function was obtained by dividing, for EC50 measured from the concentration-activation curve which has been established from the above, EC50 in the absence of ODQ by EC50 in the presence of ODQ. Specifically, the smaller the EC50 ratio is, the less the change in sGC activating function is, the change in the function being caused by the presence or absence of ODQ, and thus it is found to be more heme-independent.
EC50 value was obtained by measuring the activity of each compound to be tested at concentrations of 0.0001, 0.001, 0.003, 0.01, 0.03, 0.1, 1, and 10 μmol/L and performing the calculation using four-parameter logistics model using Assay Explorer (Accelrys).

Test [2] has as its target T1, human sGC α subunit and β subunit. The test can be described thus: Maximum effect of sGC activating function (Ca2+ fluorescence in CHO-K1 cells expressing human sGC and mouse CNGA2). In kind it is cell-based. The settings on record: increase ratio of sGC activity vs control solution at 10 μmol/L test compound. On the procedure: as §1, §2, §3, §4
In this assay, intracellular cGMP concentration increases as sGC is activated, and according to opening of CNGA2 following the increase of cGMP, intracellular Ca^2+ concentration increases. Thus, SGC activation can be measured by following the change in intracellular Ca^2+ concentration. […] Thus, in the absence of ODQ, the maximum sGC activating function including the heme-dependent activation can be evaluated while the heme-independent sGC activating function can be evaluated in the presence of ODQ.

In test [3] the test system is abdominal aorta ring specimen. The test can be described thus: Evaluation of blood vessel relaxing function (phenylephrine-contracted abdominal aorta ring). The following applies: relaxation of rat abdominal aorta contracted with 1 μmol/L phenylephrine; without vs with 10 μmol/L ODQ. On the procedure: The representative compounds of the present invention were evaluated by blood vessel relaxing function according to the following Test Example. In the assay, bleeding from the upper part of a heart of a rat (male, SD) was performed under anesthesia with pentobarbital (30 mg/kg) and then abdominal aorta was extracted. The connecting tissue adhered around blood vessel was removed from the abdominal aorta in an ice-cooled Krebs-Henseleit solution (KH solution) (118 mmol/L sodium chloride, 4.7 mmol/L potassium chloride, 1.2 mmol/L magnesium sulfate, 1.2 mmol/L potassium dihydrogen phosphate, 25 mmol/L sodium hydrogen carbonate, 2.5 mmol/L calcium chloride, and 10 mmol/L glucose, pH 7.4). After that, a ring specimen with length of 2 mm was prepared and fixed in 5 mL organ bath filled with a KH solution. The KH solution was kept at 37° C. and aerated with a mixture gas of 95% O2 and 5% CO2. The specimen was stabilized for 1 hour with static tension of 1 g. The KH solution was exchanged twice during that time. The tension on the specimen was recorded on a multi-channel recorder via pickup and amplifier. After the stabilization of the specimen, contraction was caused by using 1 μmol/L phenylephrine (Phe), and cumulative administration of each compound (0.001, 0.01, 0.03, 0.1, 0.3, 1, 3, 10, 30, 100, 1000, 10000 nmol/L) was performed. For the evaluation of a case in which 1H-1,2,4-oxadiazole-(4,3a)-quinoxalin-1-one (ODQ) is contained, 10 μmol/L ODQ was added 10 minutes before the Phe addition, and the same evaluation as above was performed.
EC50 value was calculated using four-parameter logistics model using Assay Explorer (Accelrys). The test compound solution was dissolved in DMSO such that the concentration of each test compound is 1000 times the final concentration.

Setting [4] is: ODQ not contained, read-out: Emax (%) ODQ− (Heme-dependent).
[5] abbreviates: with 10 μmol/L ODQ, read-out: Emax (%) ODQ+ (Heme-independent).

Where two headings read alike, the source gives them in different places.

Regarding `O=C(O)CCCCN(CCc1ccccc1OCc1ccc(CCc2ccccc2)cc1)C1CCOc2cc(C(=O)O)ccc21` (stereo not drawn) [Example 4, 4-{N-(4-Carboxybutyl)-N-[2-[2-[4-(2-phenylethyl)benzyloxy]phenyl]ethyl]amino}chromane-7-carboxylic acid], the “EC50 Ratio (ODQ−/ODQ+)” value in test [1] stood at 2.85. Further, the Emax at 10 µM came to 114% in test [2] (setting [4]) and 109% in test [2] (setting [5]).
Take `O=C(O)CCCCN(CCc1ccccc1OCc1ccc(CCc2ccccc2)cc1)C1CCCc2nc(C(=O)O)ccc21` (stereo not drawn) [Example 6, 5-{N-(4-Carboxybutyl)-N-[2-[2-[4-(2-phenylethyl)benzyloxy]phenyl]ethyl]amino}-5,6,7,8-tetrahydroquinoline-2-carboxylic acid]: the “EC50 Ratio (ODQ−/ODQ+)” value in test [1] was found to be 0.87. Further, the Emax at 10 µM in test [2] (setting [4]) stood at 126%; in test [2] (setting [5]), 99.9%.
On the same counts, the results for `O=C(O)CCCCN(CCc1ccccc1OCc1ccc(CCc2ccccc2)cc1)C1COc2cc(C(=O)O)ccc21` (stereo not drawn) [Example 7, 3-{N-(4-Carboxybutyl)-N-[2-[2-[4-(2-phenylethyl)benzyloxy]phenyl]ethyl]amino}-2,3-dihydrobenzofuran-6-carboxylic acid] are 2.34, 110% and 108%.
For the compound `O=C(O)CCCCN(CCc1ccccc1OCc1ccc(CCc2ccccc2)cc1)C1COCc2cc(C(=O)O)ccc21` (stereo not drawn) [Example 8, 4-{N-(4-Carboxybutyl)-N-[2-[2-[4-(2-phenylethyl)benzyloxy]phenyl]ethyl]amino}-isochromane-7-carboxylic acid], the “EC50 Ratio (ODQ−/ODQ+)” value in test [1] came to 1.80. Further, the maximum response (Emax) at 10 µM was determined as 130% in test [2] (setting [4]) and 102% in test [2] (setting [5]).
Consider `O=C(O)CCCCN(CCc1ccccc1OCc1ccc(OCc2ccccc2)cc1)C1CCCc2cc(C(=O)O)ccc21` (stereo not drawn) [Example 14, 5-{N-[2-[2-(4-Benzyloxybenzyloxyl)phenyl]ethyl]-N-(4-carboxybutyl)amino}-5,6,7,8-tetrahydronaphthalene-2-carboxylic acid], for which the “EC50 Ratio (ODQ−/ODQ+)” value in test [1] amounted to 1.73. In addition, the Emax at 10 µM amounted to 99.1% in test [2] (setting [4]) and 101% in test [2] (setting [5]).
On the same counts, the results for `O=C(O)CCCCN(CCc1ccccc1OCc1ccc(/C=C/C2CCCCC2)cc1)C1CCCc2cc(C(=O)O)ccc21` (stereo not drawn) [Example 23, 5-{N-(4-Carboxybutyl)-N-[2-[2-[4-((E)-2-cyclohexylethenyl)benzyloxy]phenyl]ethyl]amino}-5,6,7,8-tetrahydronaphthalene-2-carboxylic acid] are 1.15, 126% and 104%.
For the compound `O=C(O)CCCCN(CCc1ccccc1OC[C@H]1CC[C@@H](CCc2ccccc2)CC1)C1CCCc2cc(C(=O)O)ccc21` (stereo partly drawn) [Example 27, 5-{N-(4-Carboxybutyl)-N-[2-[2-[cis-4-(2-phenylethyl)cyclohexylmethoxy]phenyl]ethyl]amino}-5,6,7,8-tetrahydronaphthalene-2-carboxylic acid], the “EC50 Ratio (ODQ−/ODQ+)” value in test [1] is listed as 1.84. The Emax at 10 µM in test [2] (setting [4]) was determined as 113%; in test [2] (setting [5]) it was 96.6%.
In the case of `O=C(O)CCCCN(CCc1ccccc1OCc1ccc(C2CC2)cc1)C1CCCc2cc(C(=O)O)ccc21` (stereo not drawn) [Example 42, 5-{N-(4-Carboxybutyl)-N-[2-[2-(4-cyclopropylbenzyloxy)phenyl]ethyl]amino}-5,6,7,8-tetrahydronaphthalene-2-carboxylic acid], in test [3], the “EC50 Ratio (ODQ−/ODQ+)” value came out at 4.3. Further, the values for the Emax at 10 µM in test [2] (setting [4]) and in test [2] (setting [5]) were 86.7% and 122%, respectively.

As usually defined, the Emax is the greatest response seen or fitted, relative to the assay's reference.
